# Patent publication US11518760B2 (Liverpool School of Tropical Medicine, priority 2017, dated 2022)
# System: C6/36 Aedes albopictus cell line infected with Wolbachia pipientis (Wolbachia strain wAlbB)
# Assay: In vitro insect cell line assay (anti-Wolbachia screen, SYTO 11 high content imaging)
# Format: cell-based
# Conditions: 168 h; C6/36 Aedes albopictus cells infected with Wolbachia pipientis wAlbB, 7 days incubation, SYTO 11 imaging; read-out: In vitro anti-Wolbachia activity
# Experimental: A C6/36 Aedes albopictus cell line infected with Wolbachia pipientis (Wolbachia strain wAlbB) derived from Aa23 A. albopictus cell line (O'Neill et al., 1997; Insect Mol Biol; Turner et al., (2006) J. Immunol. 7:1240-1249) was used to screen compounds. Cells were cultured in Leibovitz's L15+L-glutamine supplemented with heat-inactivated Foetal Calf Serum (HI-FCS), non-essential amino acids and tryptose phosphate broth. Culture medium was filter-sterilized through a 0.2 μm filter and stored at 4° C. Compounds were provided as 10 mM stocks in DMSO, diluted to 50 μM working stock to give final concentration of 5 μM on the test plate. Concentrated stocks were frozen at −20° C.
# Prior to use in the screening assay, cell cultures were sub-passaged (6 days prior) to provide ˜90% confluent cells on Day 0 of screening assay. On Day 0 (assay set-up), the medium was removed from the stock culture flask and replaced with fresh medium. The cells were detached by scraping and cell density was calculated using an automated cell counter. The cells were then diluted at working density and aliquoted at 90 μl to each well of a Cell Carrier 384 well plate (Perkin Elmer). Cell plates were incubated at 26° C.
# Control solution (DMSO-medium) was dispensed at 10 μl per well for “untreated” wells. Test solution (Drug-DMSO) was also dispensed at 10 μl (from working plate) per well for “treated” wells. The plates were incubated at 26° C., inside plastic wallet in incubator, for 7 days.
# On Day 7, 25 μl of staining medium/dye (SYTO 11, Life Technologies) was added to each sample well and allowed to stain for 15 minutes in the dark. All the medium was removed from each sample well without disturbing the cells and replaced with 100 μl of fresh medium. Plates were imaged on the Operetta High Content Imaging system (Perkin Elmer) and analyzed using texture analysis through Harmony software (Perkin Elmer). The cell-based screen and analysis are described in detail in Clare et al. (2014) J Biomol Screen.
row,Structure (SMILES),EC50 [nM]
1,"FC(F)(F)c1ncccc1CNc1nc(N2CCCC(C(F)(F)F)C2)nc2ncccc12 (stereo not drawn) [Example 249, 2-(3-(trifluoromethyl)piperidin-1-yl)-N-((2-(trifluoromethyl)pyridin-3-yl)methyl)pyrido[2,3-d]pyrimidin-4-amine]",< 0.01
2,"CN(Cc1ccccc1C(F)(F)F)c1nc(Cl)nc2ccsc12 [Example 49, 2-chloro-N-methyl-N-(2-(trifluoromethyl)benzyl)thieno[3,2-d]pyrimidin-4-amine]",1 to 10
3,"CC(C)N(C)c1nc(N2CCC2c2ccccc2C(F)(F)F)c2cccnc2n1 (stereo not drawn) [Example 184, N-isopropyl-N-methyl-4-(2-(2-(trifluoromethyl)phenyl)azetidin-1-yl)pyrido[2,3-d]pyrimidin-2-amine]",0.01 to 1
4,"CC(C)Nc1nc(NCc2ccccc2S(C)(=O)=O)c2ccccc2n1 [Example 112, N^2-isopropyl-N^4-(2-(methylsulfonyl)benzyl)quinazoline-2,4-diamine]",100 to 1000
5,"CC(C)Nc1nc(NCc2ccc(S(C)(=O)=O)cc2)c2ccccc2n1 [Example 110, N^2-isopropyl-N^4-(4-(methylsulfonyl)benzyl)quinazoline-2,4-diamine]",1000 to 100000
6,"CC(C)Nc1nc(NCc2cccnc2C(F)(F)F)c2cccnc2n1 [Example 150, N^2-isopropyl-N^4-((2-(trifluoromethyl)pyridin-3-yl)methyl)pyrido[2,3-d]pyrimidine-2,4-diamine]",10 to 100
7,"CCNC(=O)Nc1nc(NCc2cccnc2C(F)(F)F)c2cccnc2n1 [Example 207, 1-ethyl-3-(4-(((2-(trifluoromethyl)pyridin-3-yl)methyl)amino)pyrido[2,3-d]pyrimidin-2-yl)urea]",100 to 1000
8,"FC1CCN(c2nc(NCc3cccnc3C(F)(F)F)c3cccnc3n2)CC1 [Example 195, 2-(4-fluoropiperidin-1-yl)-N-((2-(trifluoromethyl)pyridin-3-yl)methyl)pyrido[2,3-d]pyrimidin-4-amine]",1 to 10
9,"CC(C)Nc1nc(NCc2ccc(F)cc2)c2ccccc2n1 [Example 134, N^4-(4-fluorobenzyl)-N^2-isopropylquinazoline-2,4-diamine]",1000 to 100000
10,"CC(C)Nc1nc(N2CCCCC2c2ccccc2C(F)(F)F)c2cccnc2n1 (stereo not drawn) [Example 185, N-isopropyl-4-(2-(2-(trifluoromethyl)phenyl)piperidin-1-yl)pyrido[2,3-d]pyrimidin-2-amine]",1000 to 100000
11,"Cc1ccc(Nc2nc(NC(C)C)nc3ccsc23)c(C)c1 [Example 32, N^4-(2,4-dimethylphenyl)-N^2-isopropylthieno[3,2-d]pyrimidine-2,4-diamine]",1000 to 100000
12,"C[C@@H]1COCCN1c1nc(N2CCC2c2ccccc2C(F)(F)F)c2cccnc2n1 (stereo partly drawn) [Example 290, (3R)-3-methyl-4-(4-(2-(2-(trifluoromethyl)phenyl)azetidin-1-yl)pyrido[2,3-d]pyrimidin-2-yl)morpholine]",0.01 to 1
13,"Oc1nc(NCc2ccccc2C(F)(F)F)c2cccnc2n1 [Example 157, 4-((2-(trifluoromethyl)benzyl)amino)pyrido[2,3-d]pyrimidin-2-ol]",1000 to 100000
14,"Cc1ccc(Nc2ncnc3ccsc23)c(C)c1 [Example 31, N-(2,4-dimethylphenyl)thieno[3,2-d]pyrimidin-4-amine]",1000 to 100000
15,"CC(C)Nc1nc(NCc2c(F)cccc2C(F)(F)F)c2cccnc2n1 [Example 166, N^4-(2-fluoro-6-(trifluoromethyl)benzyl)-N^2-isopropylpyrido[2,3-d]pyrimidine-2,4-diamine]",100 to 1000
16,"CC(C)Nc1nc(N(C)Cc2ccccc2C(F)(F)F)c2sccc2n1 [Example 50, N^2-isopropyl-N^4-methyl-N^4-(2-(trifluoromethyl)benzyl)thieno[3,2-d]pyrimidine-2,4-diamine]",10 to 100
17,"FCC1CCCN(c2nc(NCc3cccnc3C(F)(F)F)c3cccnc3n2)C1 (stereo not drawn) [Example 258, 2-(3-(fluoromethyl)piperidin-1-yl)-N-((2-(trifluoromethyl)pyridin-3-yl)methyl)pyrido[2,3-d]pyrimidin-4-amine]",< 0.01

row,Structure (SMILES),EC50 [nM]
1,"N#CC1CCN(c2nc(NCc3cccnc3C(F)(F)F)c3cccnc3n2)CC1 [Example 234, 1-(4-(((2-(trifluoromethyl)pyridin-3-yl)methyl)amino)pyrido[2,3-d]pyrimidin-2-yl)piperidine-4-carbonitrile]",1 to 10
2,CC(C)(O)c1nc(NCc2ccccc2C(F)(F)F)c2sccc2n1 [Example 86],1000 to 100000
3,"CC(c1ccccc1C(F)(F)F)N(C)c1nc(C#N)nc2ccsc12 (stereo not drawn) [Example 74, 4-(methyl(1-(2-(trifluoromethyl)phenyl)ethyl)amino)thieno[3,2-d]pyrimidine-2-carbonitrile]",1000 to 100000
4,"CC(C)Nc1nc(N2CCC2c2ccccc2C(F)(F)F)c2cccnc2n1 (stereo not drawn) [Example 183, N-isopropyl-4-(2-(2-(trifluoromethyl)phenyl)azetidin-1-yl)pyrido[2,3-d]pyrimidin-2-amine]",1 to 10
5,"FC(F)(F)c1ccccc1CNc1nc(NCCN2CCCC2)nc2ccsc12 [Example 91, N^2-(2-(pyrrolidin-1-yl)ethyl)-N^4-(2-(trifluoromethyl)benzyl)thieno[3,2-d]pyrimidine-2,4-diamine]",1000 to 100000
6,"COc1ccccc1CNc1nc(NC(C)C)nc2ccccc12 [Example 139, N^2-isopropyl-N^4-(2-methoxybenzyl)quinazoline-2,4-diamine]",100 to 1000
7,"COc1ccccc1CNc1nc(NCCCN2CCCC2=O)c2sccc2n1 [Example 35, 1-(3-((2-((2-methoxybenzyl)amino)thieno[3,2-d]pyrimidin-4-yl)amino)propyl)pyrrolidin-2-one]",100 to 1000
8,"O=C1CCCN1CCCNc1nc(NCc2ccccc2C(F)(F)F)c2sccc2n1 [Example 88, 1-(3-((4-((2-(trifluoromethyl)benzyl)amino)thieno[3,2-d]pyrimidin-2-yl)amino)propyl)pyrrolidin-2-one]",1000 to 100000
9,"CC(C)Nc1nc(NCc2ccc(F)cc2)c2sccc2n1 [Example 15, N^4-(4-fluorobenzyl)-N^2-isopropylthieno[3,2-d]pyrimidine-2,4-diamine]",100 to 1000
10,"FC(F)(F)c1ncccc1C1CCN1c1nc(N2CC(C(F)(F)F)C2)nc2ncccc12 (stereo not drawn) [Example 221, 2-(3-(trifluoromethyl)azetidin-1-yl)-4-(2-(2-(trifluoromethyl)pyridin-3-yl)azetidin-1-yl)pyrido[2,3-d]pyrimidine]",1 to 10
11,"FC(F)C1CN(c2nc(NCc3ccccc3C(F)(F)F)c3cccnc3n2)CCO1 (stereo not drawn) [Example 284, 2-(2-(difluoromethyl)morpholino)-N-(2-(trifluoromethyl)benzyl)pyrido[2,3-d]pyrimidin-4-amine]",< 0.01
12,Fc1ccccc1CNc1nc(Cl)nc2ccsc12 [Example 10],1000 to 100000
13,"CC(C)Nc1nc(NCc2ccc(C(F)(F)F)nc2)c2ncccc2n1 [Example 125, N^2-isopropyl-N^4-((6-(trifluoromethyl)pyridin-3-yl)methyl)pyrido[3,2-d]pyrimidine-2,4-diamine]",1000 to 100000
14,"CC(C)Nc1nc(NCc2ccc(C#N)cc2)c2sccc2n1 [Example 116, N^4-(4-cyanobenzyl)-N^2-isopropylthieno[3,2-d]pyrimidine-2,4-diamine]",100 to 1000
15,FC(F)(F)c1ncccc1CNc1ncnc2ncc(Br)cc12 [Example 180],1000 to 100000
16,FC(F)(F)c1cccc(CNc2ncnc3ccsc23)c1 [Example 81],1000 to 100000
